What all share (type): cell-based, mouse
The test system of experiment [1] is β-galactosidase in CMV-LacZ C2C12 myotubes. In words: CMV-LacZ secondary screen in C2C12 myotubes (β-Gal stabilizing assay). The settings on record: C2C12 CMV-LacZ myotubes, fold relative to DMSO; for fold induction at 5 µM / fold induction at 10 µM / fold induction at 20 µM / fold induction at 40 µM: Mus musculus; for fold induction at 5 µM: C2C12, read-out: CMV-LACZ in Myotubes, signal relative to DMSO, 5 uM; for fold induction at 10 µM: C2C12, read-out: CMV-LACZ in Myotubes, signal relative to DMSO, 10 uM; for fold induction at 20 µM: C2C12, read-out: CMV-LACZ in Myotubes, signal relative to DMSO, 20 uM; for fold induction at 40 µM: C2C12, read-out: CMV-LACZ in Myotubes, signal relative to DMSO, 40 uM. The procedure, abridged:
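β-Gal level was the read-out, measured in a clonal C2C12 line expressing LacZ from a CMV promoter. Dose-response curves used six concentrations, 0.5 μM up to 40 μM, with duplicate points.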

For experiment [2], the system named is α7 integrin (LacZ reporter in α7+/LacZ myotubes). In words: Myotube α7 integrin FDG assay (Burkin assay in myotubes, 96-well). The settings on record: myotubes; for fold induction at 0.5 µM / fold induction at 1 µM / fold induction at 5 µM / fold induction at 10 µM / fold induction at 20 µM / fold induction at 40 µM: Mus musculus, Myotube.
Experiment [3] deals with α7 integrin (LacZ reporter in α7βgal+/− myoblasts). In words: Myoblast α7+/LacZ integrin FDG assay (Burkin assay in myoblasts, 96-well). The settings on record: α7+/LacZ myoblasts, 96-well; for fold induction at 0.5 µM / fold induction at 1 µM / fold induction at 5 µM / fold induction at 10 µM / fold induction at 20 µM / fold induction at 40 µM: Mus musculus, Myoblast, 48 h.

[4] abbreviates: 0.5 uM, read-out: Burkin Assay in Myotubes (signal relative to DMSO).
Where [5] appears, read: 1 uM, read-out: Burkin Assay in Myotubes (signal relative to DMSO).
The mark [6] stands for this setting: 5 uM, read-out: Burkin Assay in Myotubes (signal relative to DMSO).
Where [7] appears, read: 10 uM, read-out: Burkin Assay in Myotubes (signal relative to DMSO).
[8] abbreviates: 20 uM, read-out: Burkin Assay in Myotubes (signal relative to DMSO).
Where [9] appears, read: 40 uM, read-out: Burkin Assay in Myotubes (signal relative to DMSO).
[10] abbreviates: 0.5 uM, read-out: Burkin Assay in Myoblasts, value relative to DMSO.
Where [11] appears, read: 1 uM, read-out: Burkin Assay in Myoblasts, value relative to DMSO.
Setting [12] is: 5 uM, read-out: Burkin Assay in Myoblasts, value relative to DMSO.
The mark [13] stands for this setting: 10 uM, read-out: Burkin Assay in Myoblasts, value relative to DMSO.
The mark [14] stands for this setting: 20 uM, read-out: Burkin Assay in Myoblasts, value relative to DMSO.
The mark [15] stands for this setting: 40 uM, read-out: Burkin Assay in Myoblasts, value relative to DMSO.

Structures are written as SMILES. Where two headings read alike, the source gives them in different places.

As to `CNC(=S)N1CCC(NC(=O)C(Cc2ccc(F)cc2)NC(C)=O)CC1` (stereo not drawn) [MLS000710130-01], the “CMV-LACZ in Myotubes, signal relative to DMSO” value in experiment [1] (5 uM) was found to be 0.8144; in experiment [1] (10 uM), 0.8646; in experiment [1] (20 uM) it was 0.9864; in experiment [1] (40 uM), 0.9336. In addition, the “Burkin Assay in Myotubes (signal relative to DMSO)” value in experiment [2] (0.5 uM) was 0.9811; in experiment [2] (1 uM), 0.8524; in experiment [2] (5 uM) it was 0.6183; in experiment [2] (10 uM) it was 0.6452; in experiment [2] (20 uM), 1.044; in experiment [2] (40 uM), 1.064. The “Burkin Assay in Myoblasts, value relative to DMSO” value was 0.9666 in experiment [3] (0.5 uM); 1.103 in experiment [3] (1 uM); 1.006 in experiment [3] (5 uM); 1.036 in experiment [3] (10 uM); 0.8326 in experiment [3] (20 uM); 0.8689 in experiment [3] (40 uM).

Take `Cc1ccc(NC(=O)C2CCCCC2C(=O)O)cc1C` (stereo not drawn) [MLS000850824-01]: the results for the fold induction at 5 µM in experiment [1], in experiment [2] (setting [6]) and in experiment [3] (setting [12]) were 0.885, 0.99 and 1.08, respectively. Besides, the fold induction at 10 µM in experiment [1] is 0.992; in experiment [2] (setting [7]), 1.07; in experiment [3] (setting [13]), 1.08. Moreover, the fold induction at 20 µM in experiment [1] came to 0.995; in experiment [2] (setting [8]), 1.14; in experiment [3] (setting [14]) it was 0.986. Also, the figures for the fold induction at 40 µM in experiment [1], in experiment [2] (setting [9]) and in experiment [3] (setting [15]) were 0.946, 1.21 and 1.06, respectively. Moreover, the fold induction at 0.5 µM in experiment [2] (setting [4]) came to 0.908; in experiment [3] (setting [10]), 1.17. Besides, the fold induction at 1 µM in experiment [2] (setting [5]) is 1.09; in experiment [3] (setting [11]), 1.27.

For `O=C1CCc2cc(S(=O)(=O)Nc3ccc(C(F)(F)F)cc3)cc3c2N1CC3` [MLS001237320-01], the “CMV-LACZ in Myotubes, signal relative to DMSO” value turned out to be 0.9582 in experiment [1] (5 uM), 0.7569 in experiment [1] (10 uM), 0.9895 in experiment [1] (20 uM) and 1.082 in experiment [1] (40 uM). For the same compound, the “Burkin Assay in Myotubes, α7 integrin LacZ reporter signal relative to DMSO” value in experiment [2] (0.5 uM) was determined as 0.9879; in experiment [2] (1 uM) it was 1.055; in experiment [2] (5 uM), 1.035; in experiment [2] (10 uM) it was 0.6554; in experiment [2] (20 uM), 0.9912; in experiment [2] (40 uM), 0.9787. In addition, the “Burkin Assay in Myoblasts, signal relative to DMSO” value turned out to be 0.9733 in experiment [3] (0.5 uM); 0.9848 in experiment [3] (1 uM); 0.9145 in experiment [3] (5 uM); 0.8495 in experiment [3] (10 uM); 0.9287 in experiment [3] (20 uM); 0.8187 in experiment [3] (40 uM).

For `CN(C)CCNc1ncnc2sc(-c3ccccc3)cc12` [MLS001179717-01], the “CMV-LACZ in Myotubes, signal relative to DMSO” value came to 1.084 in experiment [1] (5 uM), 0.8133 in experiment [1] (10 uM), 0.5748 in experiment [1] (20 uM) and 0.4829 in experiment [1] (40 uM). In addition, the “Burkin Assay in Myotubes, α7 integrin LacZ reporter signal relative to DMSO” value in experiment [2] (0.5 uM) was 0.8788; in experiment [2] (1 uM) it was 1.027; in experiment [2] (5 uM), 0.744; in experiment [2] (10 uM), 0.6812; in experiment [2] (20 uM), 0.5137; in experiment [2] (40 uM), 0.2663. Besides, the “Burkin Assay in Myoblasts, signal relative to DMSO” value in experiment [3] (0.5 uM) is given as 0.912; in experiment [3] (1 uM), 0.864; in experiment [3] (5 uM), 0.8357; in experiment [3] (10 uM), 0.6794; in experiment [3] (20 uM), 0.3052; in experiment [3] (40 uM), 0.05093.

Regarding `COc1ccc(NC(=O)c2ccc3nc(C)sc3c2)cc1` [MLS001204005-01], the fold induction at 5 µM came to 0.94 in experiment [1], 0.763 in experiment [2] (setting [6]) and 1.02 in experiment [3] (setting [12]). Also, the results for the fold induction at 10 µM in experiment [1], in experiment [2] (setting [7]) and in experiment [3] (setting [13]) were 1.14, 1.02 and 1.24, respectively. The figures for the fold induction at 20 µM in experiment [1], in experiment [2] (setting [8]) and in experiment [3] (setting [14]) were 1.02, 0.818 and 1.23, respectively. The fold induction at 40 µM in experiment [1] came out at 0.781; in experiment [2] (setting [9]), 1.16; in experiment [3] (setting [15]) it was 1.17. Also, the fold induction at 0.5 µM worked out at 0.903 in experiment [2] (setting [4]) and 1.08 in experiment [3] (setting [10]). The fold induction at 1 µM in experiment [2] (setting [5]) was 0.987; in experiment [3] (setting [11]) it was 1.15.

Turning to `COc1ccccc1C(=O)Nc1nc2cc3c(cc2s1)OCO3` [MLS000419555-01], the fold induction at 5 µM in experiment [1] is 1.22; in experiment [2] (5 uM, read-out: Burkin Assay in Myotubes, α7 integrin LacZ reporter signal relative to DMSO) it was 1.15; in experiment [3] (5 uM, read-out: Burkin Assay in Myoblasts, signal relative to DMSO), 1.07. In addition, the fold induction at 10 µM came out at 1.21 in experiment [1]; 1.09 in experiment [2] (10 uM, read-out: Burkin Assay in Myotubes, α7 integrin LacZ reporter signal relative to DMSO); 1.03 in experiment [3] (10 uM, read-out: Burkin Assay in Myoblasts, signal relative to DMSO). In addition, the fold induction at 20 µM is 1.22 in experiment [1]; 1.01 in experiment [2] (20 uM, read-out: Burkin Assay in Myotubes, α7 integrin LacZ reporter signal relative to DMSO); 0.948 in experiment [3] (20 uM, read-out: Burkin Assay in Myoblasts, signal relative to DMSO). The fold induction at 40 µM came out at 1.22 in experiment [1]; 1.02 in experiment [2] (40 uM, read-out: Burkin Assay in Myotubes, α7 integrin LacZ reporter signal relative to DMSO); 0.797 in experiment [3] (40 uM, read-out: Burkin Assay in Myoblasts, signal relative to DMSO). Besides, the fold induction at 0.5 µM was found to be 1.05 in experiment [2] (0.5 uM, read-out: Burkin Assay in Myotubes, α7 integrin LacZ reporter signal relative to DMSO) and 1.19 in experiment [3] (0.5 uM, read-out: Burkin Assay in Myoblasts, signal relative to DMSO). Besides, the fold induction at 1 µM in experiment [2] (1 uM, read-out: Burkin Assay in Myotubes, α7 integrin LacZ reporter signal relative to DMSO) was 1.02; in experiment [3] (1 uM, read-out: Burkin Assay in Myoblasts, signal relative to DMSO), 1.2.

Source of the values: patent US9980943B2, “Methods of treating muscular dystrophy” (BOARD OF REGENTS OF THE NEVADA SYSTEM OF HIGHER EDUCATION, …, priority 2013, dated 2018).
